Assay results from patent US11607421B2, “Ethanolamine-based lipid biosynthetic compounds, method of making and use thereof” (Metanoi Therapeutics, Inc., priority 2016, dated 2023).
pIC50: −log10 of the molar value. In brackets after ≈: the same amount, converted by molar mass.

What was measured:
[1] = biological target: CYP2B6 (Homo sapiens, UniProt P20813); assay: CYP inhibition in human liver microsomes
[2] = biological target: CYP2D6 (Homo sapiens, UniProt P10635); assay: CYP inhibition in human liver microsomes
CYP2D6, sequence (P10635 whole entry): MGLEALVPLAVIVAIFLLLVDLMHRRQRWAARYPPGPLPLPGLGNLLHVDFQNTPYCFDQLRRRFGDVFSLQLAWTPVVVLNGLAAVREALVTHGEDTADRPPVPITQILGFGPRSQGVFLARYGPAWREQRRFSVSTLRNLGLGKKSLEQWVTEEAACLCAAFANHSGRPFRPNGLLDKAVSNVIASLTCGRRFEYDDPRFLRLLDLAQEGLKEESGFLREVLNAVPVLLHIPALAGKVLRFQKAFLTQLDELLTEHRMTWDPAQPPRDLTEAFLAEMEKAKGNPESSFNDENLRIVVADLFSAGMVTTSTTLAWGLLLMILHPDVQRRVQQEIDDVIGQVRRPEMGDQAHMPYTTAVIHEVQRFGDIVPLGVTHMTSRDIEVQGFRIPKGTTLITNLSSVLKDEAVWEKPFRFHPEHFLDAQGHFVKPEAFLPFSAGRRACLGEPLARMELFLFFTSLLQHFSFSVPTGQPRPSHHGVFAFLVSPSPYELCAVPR

[3] = system: PC-3 cells; assay: MTT cell proliferation assay; assay type: cell-based, human
Experimental: Next, a clonogenic cell survival assay was performed to assess the reproductive capacity of cells upon drug removal.
After 48 h, drug containing medium was replaced by medium containing MTT (tetrazolium bromide) at a concentration of 0.5 mg/ml. The yellow tetrazolium salt is reduced to insoluble purple formazan by viable cells. After 4 h of incubation in dark, formazan crystals produced by viable cells were dissolved by 200 μl DMSO and the amount of formazan crystals formed was quantified by recording the absorbance at 570 nm using multi-well plate reader. […] After 10 days, colonies were fixed with 4% formaldehyde, stained with crystal violet and counted.

[4] = biological target: CYP1A2 (Homo sapiens, UniProt P05177); assay: CYP inhibition in human liver microsomes
CYP1A2, sequence (P05177 whole entry): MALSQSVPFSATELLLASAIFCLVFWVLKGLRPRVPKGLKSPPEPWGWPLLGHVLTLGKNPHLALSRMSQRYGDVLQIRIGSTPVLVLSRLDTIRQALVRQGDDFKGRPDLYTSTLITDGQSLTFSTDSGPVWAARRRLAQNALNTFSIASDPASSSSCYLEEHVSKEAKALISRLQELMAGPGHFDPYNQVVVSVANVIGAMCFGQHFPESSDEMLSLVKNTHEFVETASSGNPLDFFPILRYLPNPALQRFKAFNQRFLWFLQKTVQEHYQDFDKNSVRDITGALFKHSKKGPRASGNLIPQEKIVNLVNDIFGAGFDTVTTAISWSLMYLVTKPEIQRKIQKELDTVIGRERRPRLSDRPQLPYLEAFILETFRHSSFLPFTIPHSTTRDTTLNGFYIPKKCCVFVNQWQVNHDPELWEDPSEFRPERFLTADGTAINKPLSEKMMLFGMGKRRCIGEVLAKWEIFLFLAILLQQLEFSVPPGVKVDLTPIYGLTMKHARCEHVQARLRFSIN

[5] = biological target: CYP2E1 (Homo sapiens, UniProt P05181); assay: CYP inhibition in human liver microsomes
CYP2E1, sequence (P05181 whole entry): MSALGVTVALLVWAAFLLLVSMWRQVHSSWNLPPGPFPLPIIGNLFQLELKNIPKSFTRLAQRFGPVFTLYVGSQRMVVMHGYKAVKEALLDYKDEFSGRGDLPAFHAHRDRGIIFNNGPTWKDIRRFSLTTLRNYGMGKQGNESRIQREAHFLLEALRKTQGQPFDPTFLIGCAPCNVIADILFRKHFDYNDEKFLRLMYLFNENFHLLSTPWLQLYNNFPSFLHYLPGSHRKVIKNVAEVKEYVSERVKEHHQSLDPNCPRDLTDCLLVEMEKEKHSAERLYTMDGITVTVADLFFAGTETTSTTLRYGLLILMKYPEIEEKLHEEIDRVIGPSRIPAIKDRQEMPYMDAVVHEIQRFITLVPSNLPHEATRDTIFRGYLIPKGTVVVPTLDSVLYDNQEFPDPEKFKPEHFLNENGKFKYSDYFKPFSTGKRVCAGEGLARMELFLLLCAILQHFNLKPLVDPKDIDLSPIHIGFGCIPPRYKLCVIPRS

[6] = biological target: CYP2A6 (Homo sapiens, UniProt P11509); assay: CYP inhibition in human liver microsomes
CYP2A6, sequence (P11509 whole entry): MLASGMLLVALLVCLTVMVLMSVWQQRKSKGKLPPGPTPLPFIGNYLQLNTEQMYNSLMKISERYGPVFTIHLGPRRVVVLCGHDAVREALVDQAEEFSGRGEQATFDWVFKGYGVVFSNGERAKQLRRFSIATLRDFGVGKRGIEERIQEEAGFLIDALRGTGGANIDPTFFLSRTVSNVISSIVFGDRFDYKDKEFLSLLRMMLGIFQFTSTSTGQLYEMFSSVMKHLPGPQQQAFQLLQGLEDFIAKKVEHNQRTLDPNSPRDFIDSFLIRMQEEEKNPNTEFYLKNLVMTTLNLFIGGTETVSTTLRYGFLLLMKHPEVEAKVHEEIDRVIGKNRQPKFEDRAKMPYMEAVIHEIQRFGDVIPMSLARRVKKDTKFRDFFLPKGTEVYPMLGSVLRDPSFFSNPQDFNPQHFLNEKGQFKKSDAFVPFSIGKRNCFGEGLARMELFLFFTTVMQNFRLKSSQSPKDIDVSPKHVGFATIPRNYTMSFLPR

[7] = system: PC-3-luc; assay: PC-3-luc prostate tumor xenograft
[8] = system: p21, PARP1, Bcl-2, HIF1-α, Bax and Bid; assay: Real time-PCR transcription levels; assay type: cell-based, human; conditions: PC-3 cells, 2 mg/ml Etn for 48 h
Experimental: OCR was measured using an oxygen electrode.
To test this hypothesis, HIF1-α expression levels were analyzed in Etn-treated tumors and PC-3 cells. […] DMOG, an HIF1-α activator, was then employed to test whether Etn-mediated cell death in PC-3 cells was associated with HIF1-α stabilization (active HIF1-α signaling).
RNA was extracted from control and 2 mg/ml Etn-treated PC-3 cells using a RNeasy kit from Qiagen (Hilden, Germany), and quantified using NanoDrop. Reverse transcription of RNA was performed for the first strand cDNA synthesis using a first strand synthesis kit (GoScript™ Reverse Transcription System-A5000) from Promega (Madison, Wis.). The quality of synthesized cDNAs was checked on an agarose gel. RT-PCR of cDNA samples (in duplicates) was performed using iQ™ SYBR® Green Supermix from Bio-Rad (Hercules, Calif.) as per manufacturer's instructions. The RT-PCR primers were designed manually, checked with the primer3 software and ordered from Sigma (St Louis, Mo.).

[9] = system: DU145; assay: DU145 prostate tumor xenograft; conditions: 40 mg/kg Etn, oral gavage, 4 weeks
[10] = biological target: CYP2C9 (Homo sapiens, UniProt P11712); assay: CYP inhibition in human liver microsomes
CYP2C9, sequence (P11712 whole entry): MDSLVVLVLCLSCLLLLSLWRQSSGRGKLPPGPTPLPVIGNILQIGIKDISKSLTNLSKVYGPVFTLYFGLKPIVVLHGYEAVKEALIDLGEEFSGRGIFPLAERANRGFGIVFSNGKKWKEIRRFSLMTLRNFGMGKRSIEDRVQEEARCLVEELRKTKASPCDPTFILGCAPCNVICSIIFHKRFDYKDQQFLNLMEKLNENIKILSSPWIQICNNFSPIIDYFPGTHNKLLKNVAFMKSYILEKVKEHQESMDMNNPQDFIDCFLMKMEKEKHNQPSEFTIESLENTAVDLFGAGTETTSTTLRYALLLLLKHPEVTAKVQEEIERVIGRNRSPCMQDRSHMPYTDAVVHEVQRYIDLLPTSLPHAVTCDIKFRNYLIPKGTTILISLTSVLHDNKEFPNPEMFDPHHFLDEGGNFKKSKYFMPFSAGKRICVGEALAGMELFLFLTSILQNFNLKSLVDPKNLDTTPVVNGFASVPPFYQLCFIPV

[11] = system: HCT116; assay: HCT116 colon tumor xenograft; conditions: 40 mg/kg Etn oral, 2 weeks
[12] = Stability in simulated gastric fluid (SGF); assay type: in vitro ADME; conditions: 10 μM, SGF pH 1.2, over 1 h
Experimental: Samples (100 μl) were drawn at 0, 15, 30 and 60 min from SGF reaction-vials and at 0, 30, 60 and 120 min from SIF reaction-vials, quenched with acetonitrile, vortex-mixed, and centrifuged before supernatant analysis by LC-MS/MS analysis. […] For PK studies, a sparse sampling design with 3 mice per time point was used to collect blood samples at 5, 10, 15, 30 min and 1, 2, 3, 4, 5 and 6 h in K2EDTA-coated tubes. The pharmacokinetic parameters (AUClast, Cmax, CL and Vss) were calculated using non-compartmental analysis tool of Phoenix WinNonlin software (version 6.3).
Given the extreme pH and various digestive enzymes, the GI tract presents a harsh environment to any ingested xenobiotic. Thus, many potential drug candidates are degraded in the GI tract, explaining their decreased bioavailability or inability to reach the target at effective concentrations. Simulated gastric fluid (SGF; pH 1.2) and simulated intestinal fluid (SIF; pH 6.8) closely mimic the GI tract environment and are amenable in vitro systems to evaluate degradation of a compound in GI tract (US Pharmacopoia).
Simulated gastric fluid was prepared as per U.S. Pharmacopeia (USP) methods. Sodium chloride (2 g) and pepsin (3.2 g, from porcine stomach mucosa) were dissolved in 7.0 ml hydrochloric acid and Milli-Q water to make up the volume to 1000 ml and the pH was adjusted to 1.2. […]

[13] = system: CK KD PC-3 cells; assay: MTT assay in choline kinase knock down cells (siRNA); assay type: cell-based; conditions: Homo sapiens, PC-3, 48 h; read-out: decrease in cell viability
Description: (Panel D) Choline kinase expression in prostate cancer cell lines (PC-3, DU145 and C42B) and normal prostate cell line (RWPE-1). GAPDH was used as a loading control. (Panel E) Scatter-plot comparing choline kinase expression in normal and cancer tissue from prostate cancer patients (p=0.002). The p value for statistical significance was set up as 0.05, while the fold change was defined as mean of all individual data points of analyzed datasets. (Panel Fi) Micrographs showing immunohistochemical staining of choline kinase enzyme in normal and cancer tissue from prostate cancer patients. (Panel Fii) Quantification (composite score) of choline kinase expression in normal and cancer tissue from prostate cancer patient. Five normal and five cancer tissue cases on TMA were scored for choline kinase staining percentage and intensity and composite scores were calculated using two parameters. As shown in these figures, choline kinase enzyme is highly expressed in cancer tissue as opposed to normal tissue.
A siRNA approach was further employed to confirm the role of CK in Etn-induced cell death.

[14] = 40 mg/kg Etn pH 5 (phosphoric acid), oral gavage, 4 weeks

CYP2B6, sequence (P20813 whole entry): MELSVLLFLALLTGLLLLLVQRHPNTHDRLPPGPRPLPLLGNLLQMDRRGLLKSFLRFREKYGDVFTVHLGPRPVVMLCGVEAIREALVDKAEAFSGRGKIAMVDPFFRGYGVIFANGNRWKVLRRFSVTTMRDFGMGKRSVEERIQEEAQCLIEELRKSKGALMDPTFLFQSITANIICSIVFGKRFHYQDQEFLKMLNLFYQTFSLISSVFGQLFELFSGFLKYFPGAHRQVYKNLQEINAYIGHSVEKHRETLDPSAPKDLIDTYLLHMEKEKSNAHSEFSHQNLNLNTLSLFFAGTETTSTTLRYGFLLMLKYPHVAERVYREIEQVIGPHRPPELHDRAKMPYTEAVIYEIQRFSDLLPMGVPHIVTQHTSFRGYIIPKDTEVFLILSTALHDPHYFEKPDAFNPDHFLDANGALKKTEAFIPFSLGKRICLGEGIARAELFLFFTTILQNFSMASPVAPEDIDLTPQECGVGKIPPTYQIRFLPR

NCCO [Etn, monoethanolamine]
pIC50 [1]: < 4.00 | pIC50 [2]: < 4.00 | Etn-induced cell death with HIF1-α stabilization ([3]; 35 μg/mL DMOG pre-treatment 4 h, then 1 and 2 mg/ml Etn with DMOG 48 h): more effective in reducing survival in PC-3 cells | reduction of cell survival ([3]; 0.5 mg/ml Etn, 48 h, pH 7.4 (siRNA experiment)): ~38% | reduction of survival ([3]; 0.5 mg/ml Etn, 48 h, range given for PC-3, DU145 and C4-2B together): 30-52% | reduction in cell proliferation ([3]; 1 mg/ml Etn alone, 48 h, pH 7.4): ~33% | reduction in cell proliferation ([3]; 1 mg/ml Etn in the presence of 1 μM CKI, 48 h, pH 7.4): ~17% | IC50 ([3]; Homo sapiens, PC-3, 48 h, pH 7.4, MTT, 48 h, pH 7.4, read-out: half-maximal concentration (IC50)): ~880 µg/mL (≈ 14.4 mM) | half-maximal concentration (IC50) ([3]; MTT, 48 h, pH 7.4): 880 µg/mL | pIC50 [4]: < 4.00 | pIC50 [5]: < 4.00 | pIC50 [6]: < 4.00 | body weight ([7]; 40 mg/kg Etn oral, over the course of treatment, both models): no apparent changes in body weight | reduction in tumor volume vs untreated control tumors [7, 14]: ~67% | reduction in tumor weight vs untreated control tumors [7, 14]: ~55% | reduction in HIF1-α transcript levels compared to control cells [8]: 50 fold | transcription levels of cell-cycle and apoptosis regulators [8]: upregulated p21, PARP1, Bax and Bid, and downregulated Bcl-2 | reduction in tumor volume [9]: ~42% | reduction in tumor weight [9]: ~29% | pIC50 [10]: < 4.00 | body weight [11]: did not change significantly | stability in SGF [12]: stable | cytotoxicity at 500 µg/mL [13]: ~11%
